Consider 14 compounds from patent US12247013B2, “Indane derivatives for use in the treatment of bacterial infection” (priority 2018, dated 2025).

Molecules are shown by their SMILES. Some results are limits rather than exact numbers.

Sequence of purified LasB protein from P. aeruginosa (P14756 198-498): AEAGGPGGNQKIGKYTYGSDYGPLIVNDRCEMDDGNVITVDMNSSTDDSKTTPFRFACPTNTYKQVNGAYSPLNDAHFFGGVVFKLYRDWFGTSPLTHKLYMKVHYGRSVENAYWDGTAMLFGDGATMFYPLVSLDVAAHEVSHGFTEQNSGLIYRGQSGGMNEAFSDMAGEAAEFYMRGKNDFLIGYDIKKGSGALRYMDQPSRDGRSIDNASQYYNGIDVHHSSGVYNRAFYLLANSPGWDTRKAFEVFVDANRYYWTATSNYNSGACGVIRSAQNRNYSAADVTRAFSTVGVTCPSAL

The subject of the first experiment is Pseudomonas aeruginosa (PAO1). Nature of the experiment: Mouse model of Pseudomonas aeruginosa lung infection. In kind it is in vivo. Particulars: mice infected with wild-type PAO1, intravenous 10 and 30 mg/kg at 1 h and 2 h post infection, 24 hours post infection (FIG. 2). The procedure: Mice were dosed by intranasal inoculation of PA (PAO1), then sacrified after 24 hours. The extent of infection in the lung was quantified by bacterial load (CFU determination, colony forming units) and the levels of proinflammatory IL-1β. Statistical analysis on both readouts were performed by ANOVA with a Dunnett post-test.
Compounds were administered intravenously in a two-dose regimen (1 hour and 2 hours post infection) at two different doses (10 and 30 mg/kg).
With `COc1cc2sc(CNC(=O)C3(CC(=O)[O-])Cc4cc(F)c(F)cc4C3)nc2cc1OCCC[N+](C)(CCO)CCO` [Example 23, 2-[2-[[5-[3-[bis(2-hydroxyethyl)-methyl-ammonio]propoxy]-6-methoxy-1,3-benzothiazol-2-yl]methylcarbamoyl]-5,6-difluoro-indan-2-yl]acetate], the “production and activation of IL-1β in the lung” value was “inhibited the production and activation of IL-1β in mice infected by wild-type PA (PA01) at a similar level than the lasB deleted mutant”.

Still in this experiment, the particulars now being: mice infected with wild-type PAO1, intravenous 10 and 30 mg/kg at 1 h and 2 h post infection, 24 hours post infection (FIG. 3).
Turning to `COc1cc2sc(CNC(=O)C3(CC(=O)[O-])Cc4cc(F)c(F)cc4C3)nc2cc1OCCC[N+](C)(CCO)CCO` [Example 23, 2-[2-[[5-[3-[bis(2-hydroxyethyl)-methyl-ammonio]propoxy]-6-methoxy-1,3-benzothiazol-2-yl]methylcarbamoyl]-5,6-difluoro-indan-2-yl]acetate], the “extent of infection in the lung (CFU levels)” value is “reduced the extent of infection in the lung to the level of the LasB deleted mutant”.

The target in another experiment is purified LasB protein from P. aeruginosa (Pseudomonas aeruginosa (strain ATCC 15692 / DSM 22644 / CIP 104116 / JCM 14847 / LMG 12228 / 1C / PRS 101 / PAO1), UniProt P14756). Nature of the experiment: Fluorometric assay to determine Ki (Abz-Ala-Gly-Leu-Ala-p-Nitro-Benzyl-Amide substrate). Particulars: 250 μM substrate, Ki calculated from IC50. Format: biochemical. The procedure: Experiments were therefore conducted (1) to measure the potency of inhibition of compounds of the invention against purified Pseudomonas aeruginosa LasB enzyme and also experiments were conducted (2) to measure the ability of compounds of the invention to inhibit LasB-catalysed elastin degradation. The first assay uses a commercial fluorescent synthetic peptide and purified LasB enzyme. The LasB hydrolysis kinetics are measured allowing the determination of the IC50 and Ki of the inhibitors; the second is a more physiological assay using dialysed Pseudomonas aeruginosa supernatant as source of enzyme, plus its natural substrate Elastin. It is an “end point assay” that determines the percentage of LasB inhibition by each compound for one particular time point and inhibitor concentration. Technical details are described below:
Fluorometric Assay to Determine Ki
This assay uses commercially available substrate (Abz-Ala-Gly-Leu-Ala-p-Nitro-Benzyl-Amide (Ex: 340 nm, Em: 415 nm) from Peptide International) and purified LasB protein from P. aeruginosa (provided by Merck or Charles River Laboratories). It is performed to determine LasB elastase activity and assess compound inhibition in 96-well plate format. All compounds of Formula (I) were assessed using the method described below.
Method: 10 to 140 ng/ml purified LasB is incubated with 250 μM Abz-Ala-Gly-Leu-Ala-p-Nitro-Benzyl-Amide in 50 mM Tris-HCl pH 7.4, 2.5 mM CaCl2), 0.01% of Triton X100 at 37° C. LasB activity (corresponding to fluorescence emission induced by substrate hydrolysis) is measured over 30 min at 37° C. with a fluorescence plate reader such as the Perkin Elmer Envision or similar. Different range of inhibitor concentrations are routinely assessed depending of inhibitor potency from 0.0016 to 200 μM (2-fold dilutions series) in order to determine IC50.
The equation used to calculate the Ki from IC50 is: Ki=IC50/(1+([S]/Km)) where [S]=250 μM and Km=214 μM.
As usually defined, the Ki is the dissociation constant of the complex between target and ligand, obtained from inhibition or displacement. Take `COc1cc2sc(CNC(=O)C3(CC(=O)O)Cc4ccccc4C3)nc2cc1OCCN1CCOCC1` [Example 9, 2-[2-[[6-methoxy-5-(2-morpholinoethoxy)-1,3-benzothiazol-2-yl]methylcarbamoyl]indan-2-yl]acetic Acid]: the Ki was less than 50 nM. On the same count and under the same terms, then `COc1cc2sc(CNC(=O)C3(CC(=O)O)Cc4cc(F)c(F)cc4C3)nc2cc1OCCN1CCOCC1` [Example 10, 2-[5,6-difluoro-2-[[6-methoxy-5-(2-morpholinoethoxy)-1,3-benzothiazol-2-yl]methylcarbamoyl]indan-2-yl]acetic Acid], with less than 50 nM; and `COc1cc2sc(CNC(=O)C3(CC(=O)O)Cc4cc(F)c(F)cc4C3)nc2cc1OCC1CCN(C)CC1` [Example 11, 2-[5,6-difluoro-2-[[6-methoxy-5-[(1-methyl-4-piperidyl)methoxy]-1,3-benzothiazol-2-yl]methylcarbamoyl]indan-2-yl]acetic Acid], with less than 50 nM; and `COc1cc2sc(CNC(=O)C3(CC(=O)[O-])Cc4ccccc4C3)nc2cc1OCCC[N+]1(C)CCOCC1` [Example 16, 2-[2-[[6-methoxy-5-[3-(4-methylmorpholin-4-ium-4-yl)propoxy]-1,3-benzothiazol-2-yl]methylcarbamoyl]indan-2-yl]acetate], with less than 50 nM. On the same count and under the same terms, then `CC[N+](C)(CC)CCCOc1cc2nc(CNC(=O)C3(CC(=O)[O-])Cc4ccccc4C3)sc2cc1OC` [Example 18, 2-[2-[[5-[3-[diethyl(methyl)ammonio]propoxy]-6-methoxy-1,3-benzothiazol-2-yl]methylcarbamoyl]indan-2-yl]acetate], with less than 50 nM; and `COc1cc2sc(CNC(=O)C3(CC(=O)[O-])Cc4cc(F)c(F)cc4C3)nc2cc1OCCC[N+]1(C)CCCC1` [Example 19, 2-[5,6-difluoro-2-[[6-methoxy-5-[3-(1-methylpyrrolidin-1-ium-1-yl)propoxy]-1,3-benzothiazol-2-yl]methylcarbamoyl]indan-2-yl]acetate], with less than 50 nM. The same measure, in the same setting: then `COc1cc2sc(CNC(=O)C3(CC(=O)[O-])Cc4ccccc4C3)nc2cc1OCCC[N+](C)(C)CCO` [Example 20, 2-[2-[[5-[3-[2-hydroxyethyl(dimethyl)ammonio]propoxy]-6-methoxy-1,3-benzothiazol-2-yl]methylcarbamoyl]indan-2-yl]acetate], with less than 50 nM; and `COc1cc2sc(CNC(=O)C3(CC(=O)[O-])Cc4cc(F)c(F)cc4C3)nc2cc1OCCC[N+](C)(C)CCO` [Example 21, 2-[5,6-difluoro-2-[[5-[3-[2-hydroxyethyl(dimethyl)ammonio]propoxy]-6-methoxy-1,3-benzothiazol-2-yl]methylcarbamoyl]indan-2-yl]acetate], with less than 50 nM. For `COc1cc2sc(CNC(=O)C3(CC(=O)[O-])Cc4ccccc4C3)nc2cc1OCCC[N+](C)(CCO)CCO` [Example 22, 2-[2-[[5-[3-[bis(2-hydroxyethyl)-methyl-ammonio]propoxy]-6-methoxy-1,3-benzothiazol-2-yl]methylcarbamoyl]indan-2-yl]acetate], the Ki was less than 50 nM. The same measure, in the same setting: then `COc1cc2sc(CNC(=O)C3(CC(=O)[O-])Cc4cc(F)c(F)cc4C3)nc2cc1OCCC[N+](C)(CCO)CCO` [Example 23, 2-[2-[[5-[3-[bis(2-hydroxyethyl)-methyl-ammonio]propoxy]-6-methoxy-1,3-benzothiazol-2-yl]methylcarbamoyl]-5,6-difluoro-indan-2-yl]acetate], with less than 50 nM. Still for that read-out and setting: to `COc1cc2sc(CNC(=O)C3(CC(=O)O)Cc4ccccc4C3)nc2cc1C(=O)N1CCN(C)CC1` [Example 33, 2-[2-[[6-methoxy-5-(4-methylpiperazine-1-carbonyl)-1,3-benzothiazol-2-yl]methylcarbamoyl]indan-2-yl]acetic Acid] belongs less than 50 nM. Still for that read-out and setting: to `COc1cc2sc(CNC(=O)C3(CC(=O)O)Cc4ccccc4C3)nc2cc1C(=O)N1CC(N(C)C)C1` [Example 36, 2-[2-[[5-[3-(dimethylamino)azetidine-1-carbonyl]-6-methoxy-1,3-benzothiazol-2-yl]methylcarbamoyl]indan-2-yl]acetic Acid] belongs less than 50 nM; to `COc1cc2sc(CNC(=O)C3(CC(=O)O)Cc4cc(F)c(F)cc4C3)nc2cc1C(=O)N1CC(N(C)C)C1` [Example 37, 2-[2-[[5-[3-(dimethylamino)azetidine-1-carbonyl]-6-methoxy-1,3-benzothiazol-2-yl]methylcarbamoyl]-5,6-difluoro-indan-2-yl]acetic Acid], less than 50 nM.

Regarding `COc1cc2sc(CNC(=O)C3(CC(=O)[O-])Cc4cc(F)c(F)cc4C3)nc2cc1OCC1CC[N+](C)(C)CC1` [Example 44, 2-[2-[[5-[(1,1-dimethylpiperidin-1-ium-4-yl)methoxy]-6-methoxy-1,3-benzothiazol-2-yl]methylcarbamoyl]-5,6-difluoro-indan-2-yl]acetate], the Ki is less than 50 nM.
